# Experimental data from patent publication US5583155A, “6-amino-1,2-benzopyrones useful for treatment of viral diseases” (Octamer, Inc., priority 1994, dated 1996).
# Entries after “also recorded” stand apart in the source; their conditions may differ. Like-named read-outs stand apart in the source and are kept apart here.
# Key:
# Enterovirus (ECHO-11) = experiment: microbe, parasite or virus in culture; type: cell-based
# established cell lines = experiment: Intracellular drug concentration / transport in twelve cell lines; type: in vitro ADME
# Experimental: It is of importance to determine both intracellular drug concentrations and mechanisms of drug transport. Twelve different cell types were incubated with varying concentrations of the drug for varying periods and intracellular drug concentration assayed with the aid of [5^3 H] labeled 6-ABP. […] Thus, there is a significant transport regulation through the cell membrane.
# [1] = Intracellular metabolism of 6-ABP
# CMV = experiment: microbe, parasite or virus in culture; type: cell-based, human cytomegalovirus (patient isolate)
# human lymphoblasts = experiment: Lymphoblast DNA synthesis / viability (3H-thymidine incorporation); type: cell-based
# Experimental: In FIGS. 11A through 11E, normal lymphoblasts stimulated with PHA are infected with HIV and at the same time are submitted to various concentrations from 0-10 mM 6-ABP. After the short exposure of 18 hours, both HIV and 6-ABP are removed, FIGS. 11A, 11C, 11E and the 6-ABP in the same concentrations is readded up to 4 days to cultures shown in FIGS. 11B and 11D. At 4 days, proliferation index measured by ^3 H-thymidine incorporation is determined in FIGS. 11A and 11B. […] In FIGS. 11C and […], the viral synthesis or inhibition is measured by p 24 assay.
# The viability of lymphoblasts was measured by incubating the cells exposed to IL-2, HIV and to 6-ABP with H3-thymidine for 6 hours on the sixth day of culture and determining the amount of cpm incorporated per 100,000 cells placed in culture.
# In order to ascertain that relatively short 18 hours exposure of human lymphoblasts selectively blocks HIV replication and has minimal effects on DNA synthesis of lymphoblasts, the proliferation, p24 and reverse transcriptase experiments were also performed, as shown in FIG. 11.
# In panel A (top) DNA synthesis of lymphoblasts is assayed as a function of 6-ABP concentration. In panel A' (lower curve) the decay of HIV replication is simultaneously determined, and in A "panel" reverse transcriptase was assayed. All these are accepted assays for HIV replication.
# [2] = Yakugaku Zasshi, cited from earlier work
# RSV = experiment: microbe, parasite or virus in culture; type: cell-based, Respiratory Syncytium virus (patient isolate)
# Adenovirus = experiment: microbe, parasite or virus in culture; type: cell-based, Adenovirus (patient isolate)
# ADPRT = conditions: FEBS Lett., 212:73 (1987); cited from earlier work
# Influenza virus = experiment: microbe, parasite or virus in culture; type: cell-based, Influenza virus (patient isolate)
# HIV in AA-2 cells = experiment: HIV propagation in AA-2 cells (cytopathogenicity); type: cell-based; conditions: for inhibition at 3000 µM: varying HIV dilutions, read-out: HIV growth inhibition in AA-2 cells
# Experimental: (§1) Whereas the activation of latent HIV by various DNAs and its prevention by 6-ABP were shown above, the following experiments examine the effects of 6-ABP on the direct propagation of highly virulent HIV strain obtained from NIH in Molt III cells, using cell supernatant as source of virus on AA-2 and MT2 cells in culture. More than 60 tests were performed varying virus titers, time of exposure, and exposure to 6-ABP.
# The effect of 1 and 3 mM 6-ABP on the rate of HIV propagation is assayed by cytopathogenicity at a fixed HIV dilution 1:1600.
# FIG. 7 illustrates the effect of 3 mM 6-ABP on HIV growth inhibition in AA-2 cells after 3 days and 6 days. The culture was exposed to 3 mM of the drug at varying HIV dilutions. 6-ABP concentration acting for 3 or 6 consecutive days on AA-2 cells is depicted as a function of virus concentration (given as HIV dilution on the abscissa).
# HIV in U937 cells = experiment: HIV growth in U937 cells without activator (syncytium-forming assay); type: cell-based, HIV-1
# Experimental: In order to assess a possible direct effect of the drug on the growth of HIV, experiments shown in FIG. 3 were reproduced, except that conditions of virus titration (by SFU) were refined, to detect relatively low virus titers.
# Transfection was 24 hours before HIV infection.
# HIV in MT-2 cells = experiment: HIV syncytia formation in MT-2 cells; type: cell-based; conditions: 3 mM
# Experimental: as §1
# Equivalent results, shown in FIG. 9, were obtained with MT-2 cells. In FIG. 9, the inhibition of syncytia formation was quantitatively assayed. […] At very high HIV titre, at 1:100 dilution the untreated syncitia formation was 150 times higher than in treated culture.
# HIV-LTR = experiment: cells
# Experimental: All chimeric CAT constructions were prepared in pCATB' containing the CAT structural gene without eukaryotic promoter sequence.
# DNA transfection was performed with DEAE dextran. Briefly, U937 cells (5×10^6) were exposed for 60 min. at 37° C. to a mixture of DEAE Dextran (1.05 ug/ml) and DNA in STBS buffer (25 mM Tris HCl, having pH 7.5, 137 mM NaCl, 0.5 MgCl2, 0.7 mM CaCl2 and 5 mM KCl and 0.6 mM Na2 HPO4) in 15 ml snap cap 6×35 mm polyethylene dishes from Costar, Cambridge, Mass., at 5×10^6 cells per well. Routinely, transfection mixtures contained 1.0 ug of target supercoiled plasmid and 0.1 ug DNA to equalize nucleic acid concentration effects. Transfected cells were harvested 40 to 44 hr post transfection in CAT harvest buffer (40 mM Tris, having pH 7.4 150 mM NaCl, 1 mM EDTA) and stored at -20° C. until assayed.
# Routine assay conditions employed 0.2 uCi of [^14 C]-chloramphenicol substrate and an incubation time of 60 min. For quantitative estimates of CAT activity and fold activation, the appropriate sections were cut from the thin-layer chromatography scintillation fluid added and the radioactivity was counted in a scintillation counter. Quantitative comparisons were made by measuring the amounts of chloramphenicol-acetate product with enzyme concentrations and time. pSV CAT was used as a positive control, and the parent (pCATB') was used as a negative control. […]
# HSV-2 strain G = experiment: microbe, parasite or virus in culture; type: cell-based, Herpes simplex virus type 2
# [3] = 1 mM 6-ABP, 24 hours before infection
smiles,measurement,setting,value
"Nc1ccc2oc(=O)ccc2c1 [6-ABP, 6-amino-1,2-benzopyrone]",Virus Titer +6-ABP (Enterovirus),"Enterovirus (ECHO-11); 1 mM 6-ABP, 24 hours before infection, ECHO-11",1.6 × 10^6 TCID50
same,effect on Enterovirus growth,Enterovirus (ECHO-11); 6-ABP treatment,no effect
same,inhibition at 1000 µM,"Enterovirus (ECHO-11); Enterovirus, 1 mM 6-ABP, 24 hours before infection, ECHO-11",0%
same,concentration of intracellular drug,"established cell lines; 1 mM extracellular administration, depending on cell types",65 to 200 µM
same,"intracellular plateau, % of drug concentration applied extracellularly",established cell lines; 12 established cell lines,10-20%
same,time to plateau of 6-ABP transport,established cell lines; 12 established cell lines,18 to 24 h
same,penetration of mammalian cells,established cell lines; physiological pH 7.2-7.4,to a limited degree
same,reduction-oxidation cycle,[1]; liver vs target cells,high in liver but much lower in target cells
same,intracellular oxidation,"[1]; to 6-nitroso-1,2-benzopyrone",rapid oxidation at the 6-amino position
same,Virus Titer +6-ABP (CMV),CMV; [3],1 × 10^3 TCID50
same,effect on CMV growth,CMV; 6-ABP treatment,effectively inhibits CMV growth
same,inhibition at 1000 µM,"CMV; Human betaherpesvirus 5, 1 mM 6-ABP, 24 hours before infection",90%
same,viability of lymphoblasts,human lymphoblasts; 4 consecutive days exposure,viability of lymphoblasts was not affected by the drug
same,DNA synthesis of lymphoblasts,"human lymphoblasts; 18 hours exposure, FIG. 11A",does not influence genomic DNA synthesis; also recorded: did not effect the DNA synthesis; also recorded: cellular DNA synthesis virtually unaffected
same,DNA synthesis of lymphoblasts,"human lymphoblasts; 4 days exposure, FIG. 11B",temporarily also inhibited; also recorded: inhibitory effect on lymphoblast DNA synthesis
same,hypothermal effect,[2]; 78:491 (1958),6-amino group decreased the hypothermal effect
same,"antipyretic, hypnotic, hypotensive and adrenolytic action",[2]; 83:1124 (1963),"Some antipyretic, hypnotic, hypotensive and adrenolytic action"
same,Virus Titer +6-ABP (RSV),RSV; [3],1 × 10^5 TCID50
same,effect on RSV growth,RSV; 6-ABP treatment,no effect
same,inhibition at 1000 µM,"RSV; human respiratory syncytial virus, 1 mM 6-ABP, 24 hours before infection",0%
same,Virus Titer +6-ABP (Adenovirus),Adenovirus; [3],1 × 10^2 TCID50
same,effect on Adenovirus growth,Adenovirus; 6-ABP treatment,no effect
same,inhibition at 1000 µM,"Adenovirus; unidentified adenovirus, 1 mM 6-ABP, 24 hours before infection",0%
same,binding to ADPRT,ADPRT,specifically binding to ADPRT at the same site that also binds catalytically effective DNA termini
same,Virus Titer +6-ABP (Influenza),"Influenza virus; 1 mM 6-ABP, 24 hours before infection, highest dilution that caused 50% hemagglutination",1 × 10^4
same,effect on Influenza virus growth,Influenza virus; 6-ABP treatment,no effect
same,inhibition at 1000 µM,"Influenza virus; unidentified influenza virus, read-out: % Inhibition (Influenza)",0%
same,HIV propagation in AA-2 cells,"HIV in AA-2 cells; 1 mM, HIV dilution 1:1600",able to suppress the HIV propagation only slightly
same,"HIV replication, AA-2 cells","HIV in AA-2 cells; 3 mM, Example 5",complete abrogation of HIV replication
same,HIV propagation in AA-2 cells,"HIV in AA-2 cells; 3 mM, day 6, HIV dilution 1:1600",completely eliminates HIV propagation
same,inhibition at 3000 µM,"HIV in AA-2 cells; Human immunodeficiency virus 1, 72 h, 3 mM, 3 days",70 to 100%
same,inhibition at 3000 µM,"HIV in AA-2 cells; Human immunodeficiency virus 1, 144 h, 3 mM, 6 days",25 to 100%
same,effect on HIV growth without activator,"HIV in U937 cells; 3 mM, FIGS. 3 and 4",completely inhibit any viral growth; also recorded: significant effect on HIV growth
same,effect on HIV growth in absence of activating HSV gene,HIV in U937 cells; Table 2 experiment,significant reduction in HIV growth
same,"HIV growth, U937 + 6-ABP","HIV in U937 cells; day 3, no activator",13 SFU/ml
same,"HIV growth, U937 + 6-ABP","HIV in U937 cells; day 5, no activator",10 SFU/ml
same,"HIV growth, U937 + 6-ABP","HIV in U937 cells; day 6, no activator",10 SFU/ml
same,"HIV growth, U937 + 6-ABP","HIV in U937 cells; day 8, no activator",10 SFU/ml
same,HIV production / syncytia formation in MT-2 cells,HIV in MT-2 cells,nearly completely suppressed HIV production
same,untreated syncytia formation relative to treated culture,HIV in MT-2 cells; HIV titre 1:100 dilution,150 times
same,fold induction at 5000 µM,"HIV-LTR; Human immunodeficiency virus 1, U-937, read-out: Fold Activation, HSV-IE-110 + 6-ABP, 5 mM 6-ABP, HSV-IE-110",20
same,fold induction at 2000 µM,"HIV-LTR; Human immunodeficiency virus 1, U-937, read-out: HIV-LTR-CAT activation by IE-110 after treatment, 2 mM 6-ABP, FIG. 5, 344-fold activation without drug",0.4 to 0.9
same,Virus Titer +6-ABP (HSV-2),HSV-2 strain G; [3],2 × 10^5 PFU per ml
same,"effect of time of drug addition, HSV-2 (G)","HSV-2 strain G; 1, 5 and 10 mM, zero time vs 4 hours after infection",essentially no differences found between the two modes of drug exposure
same,inhibition of HSV-2 strain G growth,"HSV-2 strain G; 1-10 mM, 24 hours pretreatment, HEp-2 cells",90-97%
same,inhibition at 1000 µM,"HSV-2 strain G; Human alphaherpesvirus 2, 0 h, 1 mM at 0 hours (time of infection), read-out: inhibition of HSV-2 growth",85%
same,inhibition at 1000 µM,"HSV-2 strain G; Human alphaherpesvirus 2, 1 mM 6-ABP, 24 hours before infection, read-out: % Inhibition (HSV-2), Table 1",87.5%
same,inhibition at 1000 µM,"HSV-2 strain G; Human alphaherpesvirus 2, 1 mM, 24 hours pretreatment, read-out: inhibition of HSV-2 growth",90%
same,inhibition at 1000 µM,"HSV-2 strain G; Human alphaherpesvirus 2, 4 h, 1 mM at 4 hours post infection, read-out: inhibition of HSV-2 growth",72%
same,inhibition at 200 µM,"HSV-2 strain G; Human alphaherpesvirus 2, HEp-2, 0.2 mM, 24 hours pretreatment, HEp-2 cells, read-out: inhibition of HSV-2 strain G growth",~45%
